Experimental data reported in patent US9216992B2, “Thieno[3,2-c]pyridine potassium channel inhibitors” (Xention Limited, priority 2005, dated 2015).

What was measured:
human Kv1.3 = target: T1, human Kv1.3 (Homo sapiens, UniProt P22001); assay: Kv1.3 Autopatch Electrophysiology; assay type: cell-based; details: 1 μM compound; CHO cells stably transfected with human Kv1.3; AutoPatch whole cell mode; room temperature; read-out: Kv 1.3% Inhibition at 1 μM
T1 construct: expressed in transfected cells; host or cells: stably transfected cells
Method: Kv1.3 Autopatch Electrophysiology Method
(§1) Cells stably transfected with cDNA for human Kv1.3 (in pcDNA3.1) were grown in Ex-cell 302 serum-free medium for CHO cells, supplemented with 10 μl/ml [100×] glutamine, 500 μg/ml G418 (gentimicin), and 1% HT supplement (50×, hypoxanthine and thymidine). Compounds were tested on these cells using the AutoPatch technology in whole cell mode.
The external bathing solution contained (in mM): 150 NaCl, 10 KCl, 1 MgCl2, 3 CaCl2, 10 HEPES, pH 7.4 with NaOH. Patch pipettes were filled with an electrode solution of composition (in mM): 100 K-Gluconate, 20 KCl, 1 MgCl2, 1 CaCl2, 10 HEPES, 11 EGTA, 5 ATP—Na2, 2 Glutathione pH 7.2 with KOH.
(§2) Compounds were dissolved in DMSO (100%) and made up in the external bather at a concentration of 1 μM. All experiments were conducted at room temperature (22-24° C.).
(§3) A cell suspension (10 ml), with a density of 100,000 cells/ml, was aliquoted into a 15 ml centrifuge tube and transferred to an incubator (37° C., 5% CO2) for approximately one hour before use. Following 60 min incubation, a tube was taken and centrifuged at 1000 rpm for 4 mins at room temperature. 9.5 ml supernatant was thence discarded, leaving a cell pellet at the bottom of the tube. The pellet was then resuspended using 100 μl of cold (4° C.), filtered (0.22 μm), 0.2% BSA/bather solution (0.02 g BSA/10 ml bather). The bottom of the tube was manually agitated gently until the solution became cloudy with cells. The 100 μl cell resuspension solution was then stored on the bench at 4° C. (using a Peltier-based temperature control device) until used.
(§4) A length of capillary glass (1B150F-4, WPI) was dipped into the cell suspension solution, such that ˜3 cm column of fluid was taken up by capillary action. A Ag/AgCl wire was dropped into the non-dipped end of the capillary also. The outside of the solution-filled end of the capillary was then dried and the capillary was loaded into the AutoPatch™. Borosilicate glass patch pipettes (from 1.5 mm OD, thin-walled filamented, GC150-TF capillary glass, Harvard) were pulled using a DMZ pipette puller (Zeitz Instruments), and were back-filled using the internal pipette solution, being careful that no bubbles remain at the tip or in the body of the pipette. Patch pipettes typically had resistances of 2.3-3.5 MΩ. Once filled, the pipette tip and a proportion of the shaft (˜15 mm) were dipped into Sigmacote (Sigma). The recording pipette was then loaded into the AutoPatch™. Automated patch-clamping was initiated by the operator, but thereafter AutoPatch.exe continued the experiment providing that pre-set conditions and criteria were satisfied.
(§5) Whole cell patch-clamp recordings were made using the AutoPatch™ rig, which incorporated an EPC9 or EPC10 amplifier (HEKA, Germany) under control of Pulse software (v8.54 or v8.76, HEKA, Germany), a motion controller with 2 translators (Newport, UK), valve controller (VF1) and a c-level suction device all at room temperature (22-24° C.). This equipment was completely under the control of AutoPatch.exe and operator intervention was only made when there was a requirement to refill the drug reservoirs or to prevent the loss of a cell due to a technical error. Cells with an Rseries greater than 18 MΩ were discounted from the experiment.
(§6) Qualification stages prior to perfusion and drug application ensured that the observed current met the criteria for the experiment. Only those cells with an IK>400 pA were used for experiments. Cells were continuously perfused with external solution at a flow rate of 1.8-2 ml/minute. […] Online analysis of the hKv1.3 current during the application of compounds was performed by the AutoPatch™ software. Voltage-step protocols and analysis of data was performed as described for conventional electrophysiology.
(§7) Electrophysiology voltage-step protocols and analysis of data was performed as follows. Data was sampled at 5 kHz, and filtered with a −3 dB bandwidth of 2.5 kHz. Cells were held at a voltage of −80 mV. […]

human Kv1.5 = target: T2, human Kv1.5 (Homo sapiens, UniProt P22460); assay: Kv1.5 Autopatch Electrophysiology; assay type: cell-based; details: 1 μM compound; CHO cells stably transfected with human Kv1.5; AutoPatch whole cell mode; room temperature; read-out: Kv 1.5% Inhibition at 1 μM
T2 construct: expressed in transfected cells; host or cells: stably transfected cells
Method: Kv1.5 Autopatch Electrophysiology Method
as §1, with “Kv1.5” for “Kv1.3”, “pEF6::VA-His-TOPO)” for “pcDNA3.1)”, “5” for “500”, “blasticidin” for “G418 (gentimicin),”
The external bathing solution contained (in mM): 150 NaCl, 10 KCl, 1 MgCl2, 3 CaCl2, 10 HEPES, pH 7.4 with NaOH. Patch pipettes were filled with an electrode solution of composition (in mM): 160 KCl, 0.5 MgCl2, 10 HEPES, 1 EGTA, pH 7.4 with KOH.
as §2, §3, §4, §5
as §6, with “IK>500” for “IK>400”, “hKv1.5” for “hKv1.3”
as §7

T2 sequence (P22460 whole entry): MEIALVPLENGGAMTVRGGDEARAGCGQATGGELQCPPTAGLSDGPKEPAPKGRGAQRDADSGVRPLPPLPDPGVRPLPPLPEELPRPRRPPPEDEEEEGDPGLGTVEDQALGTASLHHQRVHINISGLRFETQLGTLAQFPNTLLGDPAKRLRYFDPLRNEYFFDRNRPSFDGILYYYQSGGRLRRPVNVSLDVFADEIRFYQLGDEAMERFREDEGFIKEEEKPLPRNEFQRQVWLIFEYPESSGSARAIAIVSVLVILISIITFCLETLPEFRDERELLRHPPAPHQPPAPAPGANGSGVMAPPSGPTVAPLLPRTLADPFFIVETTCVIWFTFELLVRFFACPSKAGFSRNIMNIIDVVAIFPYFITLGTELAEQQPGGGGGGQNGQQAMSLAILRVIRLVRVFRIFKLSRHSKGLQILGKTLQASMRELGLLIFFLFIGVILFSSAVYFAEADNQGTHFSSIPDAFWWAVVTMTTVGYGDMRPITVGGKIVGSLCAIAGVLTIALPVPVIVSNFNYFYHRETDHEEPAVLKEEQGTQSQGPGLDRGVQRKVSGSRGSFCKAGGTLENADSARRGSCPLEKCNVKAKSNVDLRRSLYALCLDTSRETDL
T1 sequence (P22001 whole entry): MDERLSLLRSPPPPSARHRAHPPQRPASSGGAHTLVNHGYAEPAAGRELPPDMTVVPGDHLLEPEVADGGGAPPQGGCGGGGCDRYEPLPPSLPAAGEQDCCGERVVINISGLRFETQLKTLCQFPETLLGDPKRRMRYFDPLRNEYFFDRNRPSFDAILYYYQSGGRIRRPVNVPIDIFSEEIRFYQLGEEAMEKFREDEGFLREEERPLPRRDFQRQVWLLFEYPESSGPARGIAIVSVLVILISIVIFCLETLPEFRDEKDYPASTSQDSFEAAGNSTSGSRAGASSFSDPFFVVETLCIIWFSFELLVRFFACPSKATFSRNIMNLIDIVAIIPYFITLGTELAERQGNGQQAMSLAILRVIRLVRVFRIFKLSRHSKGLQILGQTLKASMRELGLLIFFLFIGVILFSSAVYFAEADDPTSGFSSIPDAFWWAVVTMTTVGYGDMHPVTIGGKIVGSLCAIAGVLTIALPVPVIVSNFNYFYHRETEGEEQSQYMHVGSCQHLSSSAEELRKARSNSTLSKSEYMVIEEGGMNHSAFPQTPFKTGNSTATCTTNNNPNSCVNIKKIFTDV

inhibition at 1 µM (human Kv1.3) | inhibition at 1 µM (human Kv1.5) | SMILES
50.1% | 90% | Cc1ccc(-c2csc3c(-c4cccnc4)cnc(NCc4ccccc4)c23)cc1 [Example 39, Benzyl-(7-pyridin-3-yl-3-p-tolyl-thieno[3,2-c]pyridin-4-yl)-amine]
49.9% | 36.3% | Cc1ccc(-c2csc3c(-c4ccncc4)cnc(NCc4ccccc4)c23)cc1 [Example 40, Benzyl-(7-pyridin-4-yl-3-p-tolyl-thieno[3,2-c]pyridin-4-yl)-amine]
26.3% | 39.8% | Cc1ccc(-c2csc3c(-c4cccc(S(C)(=O)=O)c4)cnc(NCc4ccccc4)c23)cc1 [Example 41, Benzyl-[7-(3-methanesulfonyl-phenyl)-3-p-tolyl-thieno[3,2-c]pyridin-4-yl]-amine]
24.1% | 14.5% | Cc1ccc(-c2csc3c(-c4ccc(N(C)C)cc4)cnc(NCc4ccccc4)c23)cc1 [Example 42, Benzyl-[7-(4-dimethylamino-phenyl)-3-p-tolyl-thieno[3,2-c]pyridin-4-yl]-amine]
13.6% | 26.3% | Cc1ccc(-c2csc3c(-c4ccccc4F)cnc(NCc4ccccc4)c23)cc1 [Example 43, Benzyl-[7-(2-fluoro-phenyl)-3-p-tolyl-thieno[3,2-c]pyridin-4-yl]-amine]
29.6% | 18.8% | Cc1ccc(-c2csc3c(-c4cccc(F)c4)cnc(NCc4ccccc4)c23)cc1 [Example 44, Benzyl-[7-(3-fluoro-phenyl)-3-p-tolyl-thieno[3,2-c]pyridin-4-yl]-amine]
34% | 24.7% | Cc1ccc(-c2csc3c(-c4ccc(F)cc4)cnc(NCc4ccccc4)c23)cc1 [Example 45, Benzyl-[7-(4-fluoro-phenyl)-3-p-tolyl-thieno[3,2-c]pyridin-4-yl]-amine]
23.7% | 50.8% | Cc1cc2scc(-c3ccccc3)c2c(NCc2ccccc2)n1 [Example 50, Benzyl-(6-methyl-3-phenyl-thieno[3,2-c]pyridin-4-yl)-amine]
